{
  "source": "paper PMC12081876",
  "about": "“Identification of PTGR2 inhibitors as a new therapeutic strategy for diabetes and obesity” (EMBO Molecular Medicine, 2025)",
  "key": {"[1]": {"test_system": "differentiated 3T3-L1 adipocytes", "test": "Insulin-stimulated glucose uptake assay by (3H)2-deoxyglucose", "assay_type": "cell-based, mouse", "parameters": "insulin-stimulated glucose uptake, Fig 1J replicates / Figure 5E raw value, insulin-stimulated glucose uptake (replicates): unit not given here", "protocol": "The cell lines, which were tested for mycoplasma contamination and authenticated, were purchased from the Bioresource Collection and Research Center, Taiwan. All cells were cultured at 37 °C, 5% CO2 in a humidified incubator. HEK293T cells were maintained in DMEM (cat. no. SH30003.02, HyClone) supplemented with 10% fetal bovine serum (FBS) (cat. no. 04-001-1A, Biological Industries) and 1% antibiotic/antimycotic solution (cat. no. SV30079.01, HyClone). 3T3-L1 preadipocytes were maintained at ~70% confluence in DMEM with 10% calf serum (cat. no. 16170078, Gibco) and 1% antibiotic/antimycotic solution. For adipocyte differentiation, confluent 3T3-L1 cells (defined as day 0) were exposed to an induction medium containing 10% FBS, 1 μM dexamethasone (cat. no. D4902, Sigma-Aldrich), and 1 μg/ml insulin (Humulin R, Eli Lilly) in DMEM with or without 0.5 mM isobutyl-methylxanthine (cat. no. sc-201188A, Santa Cruz Biotechnology) as indicated. After two days, the medium was replaced with DMEM containing 10% FBS and 1 μg/ml insulin and was replenished every two days until assay.\nDifferentiated 3T3-L1 cells were starved with serum-free DMEM containing 0.2% BSA (cat. no. A9647, Sigma-Aldrich). Cells were rinsed twice with KRH buffer (137 mM NaCl, 4.7 mM KCl, 1.85 mM CaCl2, 1.3 mM MgSO4, 50 mM HEPES and 0.1% BSA, pH 7.4), and treated with or without […] insulin in the presence of 20 μM cytochalasin B (cat. no. 11328, Cayman Chemical), a GLUT inhibitor for measuring non-specific glucose uptake, for 30 min. Cells were then incubated with 0.5 μCi [^3H]-2-deoxy-D-Glucose (cat. no. NET328A001MC, PerkinElmer) and 0.1 μM 2-deoxy-D-Glucose (2DG) (cat. no. 14325, Cayman Chemical) for 5 min. Uptake of 2DG was terminated by rapidly removing medium and washing with ice-cold PBS three times. Cells were lysed with 0.1% SDS, and the radioactivity was measured using a liquid scintillation counter. Insulin-mediated glucose uptake was calculated by subtracting insulin-treated glucose uptake with basal glucose uptake."}, "[2]": {"test_system": "HFHSD-fed obese C57BL6/J mice", "test": "Body weight / diet-induced obesity in HFHSD-fed mice", "assay_type": "in vivo, mouse", "conditions": "Figure 5J, 100 mg/kg/day, in g (unit assumed)"}, "[3]": {"test_system": "HFHSD-fed obese C57BL6/J mice", "test": "Intraperitoneal glucose tolerance test (ipGTT)", "assay_type": "in vivo, mouse", "parameters": "Figure 2H Average (glucose, ipGTT) / ipGTT / ipGTT glucose, Average / Blood glucose during glucose tolerance test (Figure 5L), Average: unit not given here", "conditions": "100 mg/kg/day", "protocol": "(§1) Glucose tolerance was evaluated by the oral (OGTT) and intraperitoneal glucose tolerance test (ipGTT) after a 6-h fast. For the OGTT, glucose water (1 mg/g) was given by oral gavage, and tail blood glucose was measured with a glucometer (ACCU-CHEK Performa, Roche) at 0, 15, 30, 45, 60, 90, and 120 min. For the ipGTT, tail blood glucose was measured at 0, 15, 30, 45, 60, 90, and 120 min after intraperitoneal injection of glucose water (1 mg/g). For the insulin tolerance test (ITT), mice were fasted for 4 h and then injected intraperitoneally with 1 U/kg of insulin (Humulin R, Eli Lilly). Tail blood glucose was measured at 0, 15, 30, 45, 60, 90, 120, and 180 min."}, "[4]": {"test_system": "HFHSD-fed obese C57BL6/J mice", "test": "Insulin tolerance test (ITT)", "assay_type": "in vivo, mouse", "parameters": "Figure 2I Average (glucose, ITT) / ITT / ITT glucose, Average / Blood glucose during insulin tolerance test (Figure 5M), Average: unit not given here", "conditions": "100 mg/kg/day", "protocol": "as §1"}},
  "note": "“And” between values parts separate entries of the source, which are not always exact repeats. Equal entries are not always repeated.",
  "data": [
    {"smiles": "CCCCCC(=O)CC[C@H]1[C@H](O)CC(=O)[C@@H]1C/C=C\\CCCC(=O)O", "note": "[13,14-dihydro-15-keto-PGE2]", "values": [
      {"measurement": "insulin-stimulated glucose uptake, Fig 1J replicates", "setting": "[1]; 13,14dh-15kPGE2 5", "result": "2.459 and 1.953 and 1.121 and 1.067"},
      {"measurement": "insulin-stimulated glucose uptake", "setting": "[1]; differentiated 3T3-L1 adipocytes", "result": "showed little effect"}
    ]},
    {"smiles": "Cc1[nH]c2nc(C(C)N3CCN(c4ccccc4)CC3)nn2c(=O)c1Cc1ccc(F)cc1", "note": "(stereo not shown) [BPRPT245]", "values": [
      {"measurement": "Body weight, Average", "setting": "[2]; week 0", "result": 30.59},
      {"measurement": "Body weight, Average", "setting": "[2]; week 1", "result": 31.2},
      {"measurement": "Body weight, Average", "setting": "[2]; week 2", "result": 31.673},
      {"measurement": "Body weight, Average", "setting": "[2]; week 3", "result": 32.167},
      {"measurement": "Body weight, Average", "setting": "[2]; week 4", "result": 32.92},
      {"measurement": "Body weight, Average", "setting": "[2]; week 5", "result": 32.837},
      {"measurement": "Body weight, Average", "setting": "[2]; week 6", "result": 33.673},
      {"measurement": "Body weight, Average", "setting": "[2]; week 7", "result": 33.323},
      {"measurement": "Body weight, Average", "setting": "[2]; week 8", "result": 33.923},
      {"measurement": "Body weight, Average", "setting": "[2]; week 9", "result": 34.59},
      {"measurement": "Body weight, Average", "setting": "[2]; week 10", "result": 35.623},
      {"measurement": "Body weight, Average", "setting": "[2]; week 11", "result": 36.193},
      {"measurement": "Body weight, Average", "setting": "[2]; week 12", "result": 37.113},
      {"measurement": "Body weight, Average", "setting": "[2]; week 13", "result": 36.957},
      {"measurement": "Body weight, Average", "setting": "[2]; week 14", "result": 38.33},
      {"measurement": "Body weight, Average", "setting": "[2]; week 15", "result": 38.607},
      {"measurement": "Body weight, Average", "setting": "[2]; week 16", "result": 39.303},
      {"measurement": "Body weight, Average", "setting": "[2]; week 17", "result": 40.533},
      {"measurement": "Body weight, Average", "setting": "[2]; week 18", "result": 40.933},
      {"measurement": "Body weight, Average", "setting": "[2]; week 19", "result": 42.11},
      {"measurement": "Body weight, Average", "setting": "[2]; week 20", "result": 41.483},
      {"measurement": "Body weight, Average", "setting": "[2]; week 21", "result": 42.933},
      {"measurement": "Body weight, Average", "setting": "[2]; week 22", "result": 43.33},
      {"measurement": "Body weight, Average", "setting": "[2]; week 23", "result": 44.06},
      {"measurement": "Body weight, Average", "setting": "[2]; week 24", "result": 44.36},
      {"measurement": "Body weight, Average", "setting": "[2]; week 25", "result": 45.28},
      {"measurement": "Blood glucose during glucose tolerance test (Figure 5L), Average", "setting": "[3]; time 0", "result": 153.667},
      {"measurement": "Blood glucose during glucose tolerance test (Figure 5L), Average", "setting": "[3]; time 15", "result": 305},
      {"measurement": "Blood glucose during glucose tolerance test (Figure 5L), Average", "setting": "[3]; time 30", "result": 285.933},
      {"measurement": "Blood glucose during glucose tolerance test (Figure 5L), Average", "setting": "[3]; time 45", "result": 242.333},
      {"measurement": "Blood glucose during glucose tolerance test (Figure 5L), Average", "setting": "[3]; time 60", "result": 219.733},
      {"measurement": "Blood glucose during glucose tolerance test (Figure 5L), Average", "setting": "[3]; time 90", "result": 192.133},
      {"measurement": "Blood glucose during glucose tolerance test (Figure 5L), Average", "setting": "[3]; time 120", "result": 185.4},
      {"measurement": "Blood glucose during insulin tolerance test (Figure 5M), Average", "setting": "[4]; time 0", "result": 210.867},
      {"measurement": "Blood glucose during insulin tolerance test (Figure 5M), Average", "setting": "[4]; time 15", "result": 143.067},
      {"measurement": "Blood glucose during insulin tolerance test (Figure 5M), Average", "setting": "[4]; time 30", "result": 94.067},
      {"measurement": "Blood glucose during insulin tolerance test (Figure 5M), Average", "setting": "[4]; time 45", "result": 78.667},
      {"measurement": "Blood glucose during insulin tolerance test (Figure 5M), Average", "setting": "[4]; time 60", "result": 69.8},
      {"measurement": "Blood glucose during insulin tolerance test (Figure 5M), Average", "setting": "[4]; time 90", "result": 59.667},
      {"measurement": "Blood glucose during insulin tolerance test (Figure 5M), Average", "setting": "[4]; time 120", "result": 71.467},
      {"measurement": "Blood glucose during insulin tolerance test (Figure 5M), Average", "setting": "[4]; time 180", "result": 90.933}
    ]}
  ]
}
